Experimental data reported in patent US20020098477A1, “METHODS FOR SCREENING NUCLEAR TRANSCRIPTION FACTORS FOR THE ABILITY TO MODULATE AN ESTROGEN RESPONSE” (priority 1997, published 2002).

Legend:
AP-1 response element = test: Coll73-LUC collagenase reporter gene assay in HeLa cells transfected with ER and GR; assay type: cell-based, human; conditions: for AP-1 activation at dose used: TNF-α 10 ng/ml, data not shown
Source text: Coll73-LUC and Coll60-CAT have been previously described (Webb et al. (1995) Mol. Endo., 9: 443-456; Lopez et al. (1993) Mol. Cell Biol., 13: 3042-3049). Coll73-LUC consists of −73 to +63 base pairs of the collagenase promoter upstream of the Luciferase reporter gene. Coll517-CAT and Coll517mAP-1-CAT each contain −517 to +63 of the collagenase promoter (Webb et al. (1995) Mol. Endo., 9: 443-456).
Coll517mAP-1-CAT contains three point mutations in the consensus AP-1 response element (TGAGTCA mutated to GTACTCA). ColALuc contains the collagenase AP-1 response element upstream of the minimal drosophila alcohol dehydrogenase promoter (Starr et al., (1996) Genes & Dev., 10: 1271-1283). The ER expression vectors have been previously described: PHE0 (Green et al. (1986) Nature, 320: 134-139), PHEG0 (Tora et al. (1989) EMBO J. 8: 1981-1986), HE11 (Kumar et al. (1986) EMBO J., 5: 2231-2236), and HE15 (Kumar et al. (1987) Cell, 51: 941-951). PHE0 contains a point mutation (Gly400Val). PHEG0 is the wild type ER. PHE0 has reduced affinity for estrogens which allows for studies in cell culture without inadvertent activation. The protein coding regions of the ER plasmids were cloned into the multiple cloning site of the pSG5 expression vector. pRSVhGR (McEwan et al. (1993) Mol. Cell. Biol., 13: 399-407) consists of a cDNA encoding the human GR coding region inserted into an expression vector driven by the Rous sarcoma virus promoter. The PR-A (PhPR-60) and PR-B (hPR65) plasmids were derived from T47D cDNA and genomic DNA (Law et al (1987) Proc. Natl. Acad. Sci., USA, 84: 2877-2881; Wei et al. (1988) Mol. Endo., 2: 62-72) and cloned into an expression vector derived from pLEN (Kushner et al. (1990) Mol. Endocrinol. 4: 1465-1473). The human c-Jun (Turner et al. (1989) Science, 243: 1689-1694)) and rat c-Fos (Cohen et al. (1989) Genes & Dev., 3: 173-184)), have been previously described. The beta-actin-hCG construct has been previously described (Lopez et al. (1993) Mol. Cell. Biol., 13: 3042-3049). The pJ3-LacZ plasmid is pBR322-based and contains an SV40 promoter which activates LacZ.
All cells were maintained in DME medium without phenol red. […]
(§1) Cells were transfected by electroporation as previously described (Webb et al. (1995) Mol. Endo., 9: 443-456). […] The efficiency of transfection was monitored by co-transfection with either a (hCG reporter driven by an actin promoter (Lopez et al. (1993) Mol. Cell. Biol., 13: 3042-3049) or by co-transfection with pJ3LACZ. CAT or luciferase activity was then corrected by dividing by hCG levels or β-galactosidase activity. Five micrograms of collagenase reporter plasmid, and 1 μg of GR expression vector were used in all experiments unless otherwise indicated. […]

PR-A [1] = test: ColALuc reporter assay in CV-1 cells transfected with ER, PR-A and c-Jun; assay type: cell-based, monkey
Protocol: (§2) (FIG. 8A) HeLa cells were transfected with ColALuc (5 μg), ER (1 μg), PR-A or PR-B (1 μg), and c-Jun (3 μg). Data are from four separate transfections from three experiments for PR-A and from two transfections from two experiments for PR-B. Columns represent the average fold induction. (FIG. 8B) CV-1 cells were transfected with ColALuc (5 μg), ER (HE0, 0.5 μg), PR-A (1 μg) and c-Jun (3 μg). Data is from one experiment. Columns represent the average of two treatment points. Similar experiments have been repeated 3 times or less. (FIGS. 8A and 8B) Cells were treated with steroids immediately after transfection and harvested 40 hrs later. Error bars represent standard deviation.
(§3) Coll517mAP-1-CAT contains three point mutations in the consensus AP-1 response element (TGAGTCA mutated to GTACTCA). […]
as §1

PR-A [2] = conditions: HeLa, 10^−7 M
Protocol: (FIG. 8A) HeLa cells were transfected with ColALuc (5 μg), ER (1 μg), PR-A or PR-B (1 μg), and c-Jun (3 μg). Data are from four separate transfections from three experiments for PR-A and from two transfections from two experiments for PR-B. Columns represent the average fold induction. […] Similar experiments have been repeated 3 times or less. (FIGS. 8A and 8B) Cells were treated with steroids immediately after transfection and harvested 40 hrs later. Error bars represent standard deviation.
All cells were maintained in DME medium without phenol red. The medium was supplemented by serum (Sigma) which was tested for low estrogenic activity prior to use. […] In these experiments cells were treated with media containing charcoal-treated serum the night prior to transfection.

PR-B = test: ColALuc reporter assay in HeLa cells transfected with ER, PR-B and c-Jun; assay type: cell-based, human
Protocol: as §2, §3, §1

**Q.** How did the “AP-1 activation at dose used” value (AP-1 response element; PMA 10^−7 M) turn out when `CCCCCCCCCCCCCC(=O)O[C@@H]1[C@@H](C)[C@@]2(O)[C@@H](C=C(CO)C[C@]3(O)C(=O)C(C)=C[C@@H]23)[C@@H]2C(C)(C)[C@]12OC(C)=O` [PMA] was run?
**A.** Its value is “maximal AP-1 activation”.

**Q.** And the “transcriptional activity in the absence of steroids” value (AP-1 response element; PMA 10^−7 M, ER 5 μg, GR 1 μg)?
**A.** Its value is “ten fold stimulation”.

**Q.** How did the “progestin inhibition of estradiol with increased amounts of c-Jun” value (PR-A [1]; CV-1, PR-A, increasing c-Jun) turn out when `CCC(=O)[C@@]1(C)CC[C@H]2[C@@H]3CCC4=CC(=O)CCC4=C3CC[C@@]21C` [R5020] was run?
**A.** Its value is “maintained”.

**Q.** And the “effect on the estradiol response” value (PR-A [1]; CV-1, transfected PR-A)?
**A.** The value was “inhibited the estradiol response”.

**Q.** And the “activity of AP-1 site, single steroid” value (PR-A [2])?
**A.** The value was “inhibited the basal activity”.

**Q.** What about the “activity of AP-1 site, single steroid” value (PR-B; 10^−7 M) of the same molecule?
**A.** Its value is “inhibited the basal activity”.

**Q.** And the “progestin inhibition on treatment with both steroids” value (PR-B; estradiol + progestin)?
**A.** Its value is “loss of RU5020 inhibition”.

**Q.** How did the “tamoxifen effect on transcription at Coll73” value (AP-1 response element; tamoxifen 5×10^−6 M, HE0, GR 1 μg) turn out when `CC/C(=C(\c1ccccc1)c1ccc(OCCN(C)C)cc1)c1ccccc1` [tamoxifen] was run?
**A.** The value was “activation”.

**Q.** Which “AP-1 activation at dose used” value (AP-1 response element; PMA 10^−7 M) does the source give for TNF-α here?
**A.** Its value is “maximal AP-1 activation”.
